The source of these data is patent US20070149435A1, “Cleansing composition including microencapsulated delivery vehicles” (Kimberly-Clark Worldwide, Inc., priority 2005, published 2007).

One assay relates to Staphylococcus aureus. The assay can be described thus: Biocidal efficacy of magnesium chloride in combination with PHMB, total plate count. It is filed as cell-based. The settings on record: 15-minute contact time. How it is done:
A 1.5-milliliter tube was prepared using magnesium chloride in water.
Two control samples were also prepared. One control sample was filled with 0.850 milliliters magnesium chloride. A second control sample was prepared by introducing 0.850 milliliters sterile water.
The tubes were then vortexed until an increase in temperature was observed.
0.05 milliliters of 1×10^7 CFU/milliliter culture of Staphylococcus aureus was added to each tube. After a 15-minute contact time, 0.1 milliliters of each tube was transferred into 0.9 milliliters letheen broth. To the broth, 10 milligrams/milliliter sodium thiosulfate was also added. The tubes were again vortexed. After vortexing, 0.1 milliliters of each tube was plated on Tryptic soy agar plates. The plates were inverted and incubated at 37° C. for 24 hours. An inoculum control plate was also plated to determine the concentration of the inoculum
After 24 hours, the plates were evaluated using a total plate count to determine the biocidal efficacy of each sample.

The test system of assay [1] is Methicillin-resistant Staphylococcus aureus. The settings on record: 0.005% PHMB, 10-minute contact time, 5% bovine serum albumin soil, n = 2. How it is done: This Example utilized 1.5-milliliter tubes containing a 1-milliliter blend of phosphate-buffered saline (pH 7.2) and 5% (w/v) bovine serum albumin soil. The tubes were placed in electric heat blocks set for 22° C., 30° C., 40° C. and 50° C., respectively. The tubes remained in the electric heat blocks for approximately 10 minutes.
After 10 minutes, 0.005% (by weight) active polyhexamehtylene biguanide (PHMB) (commercially available as Cosmocil® CQ from Arch Biocides, Inc., United Kingdom) was added to two tubes at each temperature level. Duplicate tubes without PHMB at each temperature were also made.
The tubes were then vortexed and Methicillin-resistant Staphylococcus aureus (approximately 1×10^5 colony forming units (CFU)) was then added to each tube. All of the tubes were then placed back into the heat blocks at their respective temperatures.
Following a 10-minute contact time, 0.1 milliliters of each sample was transferred to 0.9 milliliters letheen broth to neutralize the PHMB activity. The letheen samples were then plated in duplicate on Tryptic Soy agar plates using a WASP2 spiral plater (commercially available from Don Whitley Scientific, Ltd., Yorkshire, United Kingdom). The plates were inverted and incubated at 37±2° C. for 48 hours.
After 48 hours, the plates were evaluated using a total plate count to determine the biocidal efficacy of each sample.

Where two headings read alike, the source gives them in different places.

As to `[Cl-].[Cl-].[Mg+2]` [Magnesium Chloride, magnesium chloride], the LOG10 recovered in the assay on Staphylococcus aureus (PHMB 0%, magnesium chloride 50%) came out at 1.9.
As to polyhexamethylene biguanide [PHMB], the LOG10 recovered with Staphylococcus aureus (PHMB 0.00025%, magnesium chloride 0%) is 4.8. For the same molecule, the “Total CFU Recovered MRSA” value in assay [1] (22° C.) was 3.5; in assay [1] (30° C.), 2.9; in assay [1] (40° C.), 2.1; in assay [1] (50° C.), under 2.
